# According to patent US20100075960A1 (priority 2006, published 2010):
# System: HCT116
# Experiment: Inhibition of cell proliferation, HCT116
# Type: cell-based
# Conditions: Homo sapiens, HCT-116; 72 h treatment; methylene blue or CellTiter-Glo
# Experimental: II. Inhibition of Cell Proliferation by PLK1 Inhibitors.
# Exponentially growing cell lines of different tumor origins, cultured in appropriate media containing 10% fetal bovine serum at 37° C. in a 5% CO2 incubator were plated in 96 or 384-well plates. Twenty four hours post-plating, cells were treated with different concentrations of test compounds ranging from 20 μM to 0.04 nM. Several wells were left untreated as a control. Seventy two hours post-treatment, cell numbers were determined using different techniques; 100 μl per well of methylene blue (Sigma M9140) (0.5% in 50:50 Ethanol:water), or 10-100 μl per well of CellTiter-Glo (Promega #G7573), depending on well size. For methylene blue staining, stain was incubated at room temperature for 30 minutes before plates were rinsed and dye solubilized in 1% N-lauroyl sarcosine, sodium salt, (Sigma L5125, in PBS). Plates were read on a microplate reader, measuring the OD at 620 nm. For CellTiter-Glo, plates were incubated at room temperature for 15 minutes and the chemiluminescent signal was read on the Victor V or Envison 2100 reader.
# Percent inhibition of cell growth was expressed as percent proliferation relative to 100% proliferation (control). Concentration of test compound that inhibited 50% of cell growth (IC50) was determined by 4 parameter fit of data using XLfit, (value of no cell control was substracted from all samples for background). The data are shown in Table 1 and Table 2 below and represent a compilation of several different experiments each performed using the general parameters outlined above, although minor variations may have been employed in some instances, in Table 1 and Table 2, +=IC50>1 μM; ++=IC50 0.5-1 μM: +++=IC50<0.5 μM.
row,Compound,IC50
1,"CC(Oc1cc(-n2cnc3cc(-c4cnn(C)c4)ccc32)sc1C(N)=O)c1cccc(OC2CCNCC2)c1 (racemic) [Example 73, (±)-5-[5-(1-Methyl-1H-pyrazol-4-yl)-1H-benzimidazol-1yl[-3-({1-[3-(4-piperidinyloxy)phenyl]ethyl}oxy)-2-thiophenecarboxamide]",> 1000 nM
2,"CC(Oc1cc(-n2cnc3cc(-c4cnn(C)c4)ccc32)sc1C(N)=O)c1cccc(OC2CCN(C)CC2)c1 (racemic) [Example 74, (±)-3-[(1-{3-[(1-methyl-4-piperidinyl)oxy]phenyl}ethyl)oxy]-5-[5-(1-methyl-1H-pyrazol-4-yl)-1H-benzimidazol-1-yl]-2-thiophenecarboxamide]",< 500 nM
3,CC(Oc1cc(-n2cnc3cc(-c4cnn(C)c4)ccc32)sc1C(N)=O)c1cccc(OC2CCNCC2)c1F (racemic) [Example 75],< 500 nM
4,"CC(Oc1cc(-n2cnc3cc(-c4cnn(C)c4)ccc32)sc1C(N)=O)c1cccc(OC2CCN(C)CC2)c1F (racemic) [Example 76, (±)-3-[(1-{2-Fluoro-3-[(1-methyl-4-piperidinyl)oxy]phenyl}ethyl)oxy]-5-[5-(1-methyl-1H-pyrazol-4-yl)-1H-benzimidazol-1-yl]-2-thiophenecarboxamide]",< 500 nM
5,"CC(Oc1cc(-n2cnc3cc(-c4cnn(C)c4)ccc32)sc1C(N)=O)c1ccnc(OC2CCNCC2)n1 (racemic) [Example 77, (±)-5-[5-(1-Methyl-1H-pyrazol-4-yl)-1H-benzimidazol-1-yl]-3-({1-[2-(4-piperidinyloxy-4-pyrimidinyl]ethyl}oxy)-2-thiophenecarboxamide]",> 1000 nM
6,"CC(Oc1cc(-n2cnc3cc(-c4cnn(C)c4)ccc32)sc1C(N)=O)c1ccnc(OC2CCN(C)CC2)n1 (racemic) [Example 78, (±)-3-[(1-(2-[(1-methyl-4-piperidinyl)oxy]-4-pyrimidinyl}ethyl)oxy]-5-[5-(1-methyl-1H-pyrazol-4-yl)-1H-benzimidazol-1-yl]-2-thiophenecarboxamide]",> 1000 nM
7,"CC(Oc1cc(-n2cnc3cc(-c4cnn(C)c4)ccc32)sc1C(N)=O)c1ccnc(OC2CCNCC2)c1 (racemic) [Example 79, (±)-5-[5-(1-Methyl-1H-pyrazol-4-yl)-1H-benzimidazol-1-yl]-3-({1-[2-(4-piperidinyloxy)-4-pyridinyl]ethyl}oxy)-2-thiophenecarboxamide]",> 1000 nM
8,"CC(Oc1cc(-n2cnc3cc(-c4cnn(C)c4)ccc32)sc1C(N)=O)c1cccc(OC2CCNCC2)n1 (racemic) [Example 81, (±)-5-[5-(1-Methyl-1H-pyrazol-4-yl)-1H-benzimidazol-1-yl]-3-({1-[6-(4-piperidinyloxy)-2-pyridinyl]ethyl}oxy)-2-thiophenecarboxamide]",> 1000 nM
9,"CC(Oc1cc(-n2cnc3cc(-c4cnn(C)c4)ccc32)sc1C(N)=O)c1cccc(OC2CCN(C)CC2)n1 (racemic) [Example 82, (±)-3-[(1-{6-[(1-Methyl-4-piperidinyl)oxy]-2-pyridinyl)ethyl)oxy]-5-[5-(1-methyl-1H-pyrazol-4-yl)-1H-benzimidazol-1-yl]-2-thiophenecarboxamide]",> 1000 nM
10,COc1cc2ncn(-c3cc(O[C@H](C)c4cccc(NCC5CCNCC5)c4Cl)c(C(N)=O)s3)c2cc1OC [Example 1],500 to 1000 nM
11,COc1cc2ncn(-c3cc(O[C@H](C)c4cccc(NCC5CCN(C)CC5)c4Cl)c(C(N)=O)s3)c2cc1OC [Example 2],< 500 nM
12,"C[C@@H](Oc1cc(-n2cnc3ccc(C#N)cc32)sc1C(N)=O)c1cccc(OC2CCN(C)CC2)c1Cl [Example 4, 3-((1R)-1-{2-chloro-3-[(1-methylpiperidin-4-yl)oxy]phenyl}-ethoxy)-5-(6-cyano-1H-benzimidazol-1-yl)thiophene-2-carboxamide]",< 500 nM
13,"C[C@@H](Oc1cc(-n2cnc3ccc(C#N)cc32)sc1C(N)=O)c1cccc(OC2CCNCC2)c1Cl [Example 5, 3-{(1R)-1-[2-chloro-3-(piperidin-4-yloxy)phenyl]ethoxy}-5-(6-cyano-1H-benzimidazol-1-yl)thiophene-2-carboxamide]",< 500 nM
14,"C[C@@H](Oc1cc(-n2cnc3ccc(Br)cc32)sc1C(N)=O)c1cccc(OC2CCN(C)CC2)c1Cl [Example 6, 5-(6-Bromo-1H-benzimidazol-1-yl)-3-[((1R)-1-{2-chloro-3-[(1-methyl-4-piperidinyl)oxy]phenyl}ethyl)oxy]-2-thiophenecarboxamide]",< 500 nM
15,"C[C@@H](Oc1cc(-n2cnc3ccc(Br)cc32)sc1C(N)=O)c1cccc(OC2CCNCC2)c1Cl [Example 7, 5-(6-Bromo-1H-benzimidazol-1-yl)-3-({(1R)-1-[2-chloro-3-(4-piperidinyloxy)phenyl]ethyl}oxy)-2-thiophenecarboxamide]",< 500 nM
16,"C[C@@H](Oc1cc(-n2cnc3cc(Cl)ccc32)sc1C(N)=O)c1cccc(OC2CCNCC2)c1Cl [Example 8, 5-(5-Chloro-1H-benzimidazol-1-yl)-3-({(1R)-1-[2-chloro-3-(4-piperidinyloxy)phenyl]ethyl}oxy)-2-thiophenecarboxamide]",< 500 nM
17,"Cc1ccc(-c2ccc3c(c2)ncn3-c2cc(O[C@H](C)c3cccc(OC4CCNCC4)c3Cl)c(C(N)=O)s2)cn1 [Example 9, 3-({(1R)-1-[2-chloro-3-(4-piperidinyloxy)phenyl]ethyl}oxy)-5-[5-(6-methyl-3-pyridinyl)-1H-benzimidazol-1-yl]-2-thiophenecarboxamide]",< 500 nM
18,"Cc1ccc(-c2ccc3c(c2)ncn3-c2cc(O[C@H](C)c3cccc(OC4CCN(C)CC4)c3Cl)c(C(N)=O)s2)cn1 [Example 10, 3-[((1R)-1-[2-chloro-3-[(1-methyl-4-piperidinyl)oxy]phenyl}ethyl)oxy]-5-[5-(6-methyl-3-pyridinyl)-1H-benzimidazol-1-yl]-2-thiophenecarboxamide]",< 500 nM
19,"C[C@@H](Oc1cc(-n2cnc3cc(-c4cccnc4)ccc32)sc1C(N)=O)c1cccc(OC2CCN(C)CC2)c1Cl [Example 11, 3-[((1R)-1-[2-chloro-3-[(1-methyl-4-piperidinyl)oxy]phenyl}ethyl)oxy}-5-[5-(3-pyridinyl)-1H-benzimidazol-1-yl]-2-thiophenecarboxamide]",< 500 nM
20,"C[C@@H](Oc1cc(-n2cnc3cc(-c4cccnc4)ccc32)sc1C(N)=O)c1cccc(OC2CCNCC2)c1Cl [Example 12, 3-({(1R)-1-[2-chloro-3-(4-piperidinyloxy)phenyl]ethyl}oxy)-5-[5-(3-pyridinyl)-1H-benzimidazol-1-yl]-2-thiophenecarboxamide]",< 500 nM
21,"C[C@@H](Oc1cc(-n2cnc3ccccc32)sc1C(N)=O)c1cccc(OC2CCN(C)CC2)c1Cl [Example 13, 5-(1H-benzimidazol-1-yl)-3-[((1R)-1-{2-chloro-3-[(1-methyl-4-piperidinyl)oxy]phenyl}ethyl)oxy]-2-thiophenecarboxamide]",< 500 nM
22,"C[C@@H](Oc1cc(-n2cnc3ccccc32)sc1C(N)=O)c1cccc(OC2CCNCC2)c1Cl [Example 14, 5-(1H-Benzimidazol-1-yl)-3-({(1R)-1-[2-chloro-3-(4-piperidinyloxy)phenyl]ethyl}oxy)-2-thiophenecarboxamide]",< 500 nM
23,"C[C@@H](Oc1cc(-n2cnc3ccccc32)sc1C(N)=O)c1cccc(OCCN2CCOCC2)c1Cl [Example 15, 5-(1H-benzimidazol-1-yl)-3-{[(1R)-1-(2-chloro-3-{[2-(4-morpholinyl)ethyl]oxy}phenyl)ethyl]oxy)-2-thiophenecarboxamide]",< 500 nM
24,"C[C@@H](Oc1cc(-n2cnc3ccccc32)sc1C(N)=O)c1cccc(OCCN2CCNCC2)c1Cl [Example 16, 5-(1H-benzimidazol-1-yl)-3-{[(1R)-1-(2-chloro-3-{[2-(1-piperazinyl)ethyl]oxy}phenyl)ethyl]oxy}-2-thiophenecarboxamide]",< 500 nM
25,C[C@@H](Oc1cc(-n2cnc3ccccc32)sc1C(N)=O)c1cccc(OCCN2CCN(C)CC2)c1Cl [Example 17],< 500 nM
26,C[C@@H](Oc1cc(-n2cnc3cc(-c4ccc(NC5CCN(C)CC5)nc4)ccc32)sc1C(N)=O)c1cccc(OC2CCN(C)CC2)c1Cl [Example 18],< 500 nM
27,"CCN1CCC(Oc2cccc([C@@H](C)Oc3cc(-n4cnc5cc(Cl)ccc54)sc3C(N)=O)c2Cl)CC1 [Example 19, 5-(5-Chloro-1H-benzimidazol-1-yl)-3-[((1R)-1-{2-chloro-3-[(1-ethyl-4-piperidinyl)oxy]phenyl}ethyl)oxy]-2-thiophenecarboxamide]",< 500 nM
28,"C[C@@H](Oc1cc(-n2cnc3cc(Cl)ccc32)sc1C(N)=O)c1cccc(OC2CCN(CCO)CC2)c1Cl [Example 20, 5-(5-Chloro-1H-benzimidazol-1-yl)-3-{((1R)-1-(2-chloro-3-{[1-(2-hydroxyethyl)-4-piperidinyl]oxy}phenyl)ethyl]oxy}-2-thiophenecarboxamide]",< 500 nM
29,"C[C@@H](Oc1cc(-n2cnc3cc(Cl)ccc32)sc1C(N)=O)c1cccc(OC2CCN(CCF)CC2)c1Cl [Example 21, 5-(5-Chloro-1H-benzimidazol-1-yl)-3-{[(1R)-1-(2-chloro-3-{[1-(2-fluoroethyl)-4-piperidinyl]oxy}phenyl)ethyl]oxy}-2-thiophenecarboxamide]",< 500 nM
